The subject of this experiment is white rabbits. The experiment can be described thus: Experiment 10: effect of the compound on cardiac rate and PQ interval on the electrocardiogram. The class given is in vivo, rabbit. The settings on record: for Cardiac rate: listed as the test compound; for Cardiac rate relative to before administration (100%) / PQ interval relative to before administration (100%): before administration (defined as 100%). The protocol:
In this experiment, the 1-hydrochloride of the compound, 4-[3-(4-benzylpiperidin-1-yl)propionyl]-7-methoxy-2,3,4,5-tetrahydro-1,4-benzothiazepine 1-hydrochloride (hereinafter called the compound) was used as the 1,4-benzothiazepine derivative or pharmaceutically acceptable salt thereof.
Five white rabbits (weight: 2.7-2.9 kg) were used in this experiment: a rabbit (weight 2.8 kg, Control 1) that was administered control solution, a rabbit (weight 2.7 kg, Test 10) that received the compound at 0.04 mg/kg/min, a rabbit (weight 2.7 kg, Test 11) that received the compound at 0.04 mg/kg/min, a rabbit (weight 2.9 kg, Test 12) that received the compound at 0.4 mg/kg/min, and a rabbit (weight 2.8 kg, Test 13) that received the compound at 0.4 mg/kg/min.
Each rabbit was anesthetized with a single intravenous injection of 20 mg/kg methohexital sodium under artificial respiration (Type AR1 Narishige Group) using endotracheal intubation. Subsequently, α-chloralose was injected into the ear veins at 90 mg/kg/20 min. A DMSO solution of the compound was prepared by dissolving 100 mg of the compound in 1 ml of dimethylsulfoxide (DMSO), and stored at 4° C.
In this experiment, injection catheters for administration of the compound and other drugs were inserted into the right external jugular veins of the rabbits, and microchip catheters (SPC-320, Millar) for blood pressure measurement were inserted via the right common arteries. A 2-lead electrocardiogram was examined, and blood pressure, cardiac rate, and electrocardiogram of the rabbits were monitored for 10 minutes. When the data stabilized, the electrocardiogram, systolic pressure and diastolic pressure of each rabbit were recorded on a personal computer via an A/D converter. The Control rabbit was administered 5% dextrose solution containing 0.1% DMSO as a control solution for 10 minutes at 0.1 ml/min. Test 10 and 11 rabbits were administered 5% dextrose containing the compound at 0.1 ml/min, and then the compound at an infusion rate of 0.04 mg/kg/min. Test 12 and 13 were administered 5% dextrose containing the compound at 0.1 ml/min, and then the compound at an infusion rate of 0.4 mg/kg/min.
Cardiac rate and PQ interval in the Control and Test rabbits were measured before administration of the test solution, and 5 and 10 minutes after administration. The PQ interval, which is the time interval between the beginning of the P-wave and the beginning of next Q wave, reflects the conduction velocity of electrical stimulation from the atrium to the ventricle. The cardiac rates before administration of the test solution were defined as 100%, and data for the cardiac rate after administration of the compound are shown in Table 10.

The mark [1] stands for this setting: infusion rate 0.04 mg/kg/min, after 5 minutes.
Setting [2] is: infusion rate 0.04 mg/kg/min, after 10 minutes.
Setting [3] is: infusion rate 0.04 mg/kg/min, before administration.
The mark [4] stands for this setting: infusion rate 0.4 mg/kg/min, after 5 minutes.
[5] abbreviates: infusion rate 0.4 mg/kg/min, after 10 minutes.
Setting [6] is: infusion rate 0.4 mg/kg/min, before administration.

The values that follow come from patent publication US20070219180A1, “Muscle Relaxtion Accelerator and Therapeutic Agent for Muscular Tissue Diseases Such as Muscle Relaxation Failure” (priority 2004, published 2007).

Where “and” joins values, the source holds several entries; their conditions need not be identical. Equal values may be shown once.

For the compound `COc1ccc2c(c1)CN(C(=O)CCN1CCC(Cc3ccccc3)CC1)CCS2` [the compound, 4-[3-(4-benzylpiperidine-1-yl)propionyl]-7-methoxy-2,3,4,5-tetrahydro-1,4-benzothiazepine], the “Increase of PQ interval compared to before administration” value (0.4 mg/kg/min, 10 minutes after administration, Test 12 and Test 13 rabbits) is given as “approximately 50%”. The PQ interval by setting is: under setting [1], 73 milliseconds and 66 milliseconds; under setting [2], 74 milliseconds and 68 milliseconds; under setting [3], 71 milliseconds and 64 milliseconds; under setting [4], 92 milliseconds and 82 milliseconds; under setting [5], 107 milliseconds and 103 milliseconds; under setting [6], 69 milliseconds and 68 milliseconds. Moreover, the Cardiac rate is 289 min⁻¹ and 283 min⁻¹ under setting [1]; 286 min⁻¹ and 281 min⁻¹ under setting [2]; 297 min⁻¹ and 286 min⁻¹ under setting [3]; 350 min⁻¹ and 311 min⁻¹ under setting [4]; 157 min⁻¹ and 98 min⁻¹ under setting [5]; 372 min⁻¹ and 327 min⁻¹ under setting [6]. The “Cardiac rate relative to before administration (100%)” value was “(100%)” (infusion rate 0.04 mg/kg/min) and “(100%)” (infusion rate 0.4 mg/kg/min). Besides, the “PQ interval relative to before administration (100%)” value (infusion rate 0.04 mg/kg/min) is “(100%)” and the “PQ interval relative to before administration (100%)” value (infusion rate 0.4 mg/kg/min) is “(100%)”.
